One test has as its target OXA-48 (Klebsiella pneumoniae, UniProt Q6XEC0). The test is described as follows: OXA-48 inhibition assay using nitrocefin as reporter. Further details: His-tag (N, cleaved yes); made in house; host or cells: E. coli BL21(DE3), pET28a. The test is classed as biochemical. Particulars: for Ki: purified OXA-48, nitrocefin hydrolysis, Morrison fit; for potency/activity against OXA-48 in words: purified OXA-48, compared with CDD-97 where a derivative. The procedure: Nitrocefin, a chromogenic β-lactam substrate, was used as a reporter in all inhibition assays with the various OXA enzymes and various compounds. Nitrocefin is not stable in aqueous solution long-term. For these assays, nitrocefin stocks were prepared in DMSO, stored at −20° C. and used within 2 weeks of dissolving. To avoid freeze-thawing, fresh stocks were always used. The Km of nitrocefin was determined prior to inhibition assays by performing steady state kinetics. Assays were performed using a DU800 spectrophotometer at room temperature in 50 mM HEPES pH 7.5, 15 mM NaHCO3, and 0.02% tween 20 buffer. Hydrolyzed nitrocefin was detected at 482 nm. For a single experiment, a series of at least 5 nitrocefin concentrations were tested against the given enzyme in duplicate and the initial velocities were measured and fit to the Michaelis-Menten equation. Experiments were repeated twice, and error reported is the standard error of the mean.
Compounds were tested for inhibition of a given OXA enzyme from hydrolyzing nitrocefin using a Tecan plate reader. […] A control with no compound was included in each run. For each compound concentration, the velocity of nitrocefin hydrolysis was determined at 482 nm and fit to the Morrison equation. […] The average Ki of separate experiments, each of which consisted of duplicate runs, is reported and error was quantified as the standard deviation.
The activity of these derivatives was assessed using inhibition assays with purified OXA-48. Compounds were tested for the ability to inhibit OXA-48 from hydrolyzing nitrocefin, a chromogenic β-lactam substrate routinely used in β-lactamase inhibition assays. Nitrocefin contains a conjugated ring system that is readily hydrolyzed and produces a visible color shift from yellow to red upon hydrolysis (O'Callaghan, et al., 1972, Antimicrob. Agents Chemother. 1:283-288). The rate of nitrocefin hydrolysis in the presence of a constant amount of OXA-48 and increasing concentrations of a given compound of interest was monitored at 482 nm. These rates were plotted against compound concentration to determine the inhibition constant (Ki) against OXA-48. […] SPR was performed using 6×-His-OXA-48 enzyme that was amine-coupled on a Ni-NTA Chip. Meropenem, which covalently binds and inhibits OXA-48, was used as a positive control.

Another test relates to E. coli MG1655OXA-48. The test is described as follows: Bacterial susceptibility (MIC, broth microdilution) of E. coli expressing OXA-48. Type of test: cell-based. As to conditions: for MIC: Escherichia coli. The procedure: Bacterial susceptibility was specifically tested using minimum inhibitory concentration assays. Susceptibility assays were performed with E. coli strains using broth in a microplate set up. Two-fold dilutions of antibiotic and/or inhibitor were used. For susceptibility tests, bacterial strains were transformed with plasmids containing OXA-48 with its endogenous signal sequence for periplasmic migration (cloned into pTP123 vector) (Majiduddin & Palzkill, 2003, Antimicrob. Agents Chemother. 47:1062-1067). pTP123 was cut with XbaI and SacI and the linearized fragment was assembled using Gibson assembly (New England Biolabs, Ipswich, MA) its signal sequence cloned in by using Gibson assembly. Bacteria were grown in Mueller-Hinton broth with 12.5 μg/mL chloramphenicol (plasmid marker) overnight. An overnight culture was diluted 1:10^4 into the final well solutions (100 uL total) and incubated for 16-18 hours. After incubation, microplates were read using a Tecan plate reader at absorbance 600. Growth was objectively defined as yielding an absorbance ≥2 times the absorbance of the negative control (media and no culture). Experiments were repeated with new bacterial inoculums each time.
Effective β-lactamase inhibitors synergize with β-lactam antibiotics and ultimately lower the minimum inhibitory concentration (MIC) of antibiotic needed to kill the bacteria. MIC studies were performed with ampicillin (AMP), a β-lactam antibiotic readily hydrolyzed by OXA-48, against E. coli strain MG1655 expressing OXA-48 (MG1655OXA-48). The OXA-48 plasmid construct contained the endogenous signal sequence of OXA-48 for secretion to the periplasm, which was expressed under a trc-promoter, allowing leaky expression in the absence of IPTG inducer. All MICs were performed by broth microdilution with 2-fold dilutions of antibiotic and/or inhibitor (FIG. 6A). The ampicillin (AMP) and imipenem (IMP) MICs were separately determined for a range of CDD-97 and avibactam concentrations. […] In the absence of bacteria, the media (Mueller Hinton) gives an absorbance reading of 0.04 so absorbance readings greater than or equal to two-fold the control were considered bacterial growth. […] CDD-97 was tested for its synergistic ability by determining AMP MICs with a range of CDD-97 concentrations (up to 256 μg/ml).
Impermeability of the outer membrane to small molecules is a major challenge for the development of therapeutics for Gram-negative bacterial infections. β-lactamases, including OXA-48, reside in the periplasmic space and so inhibitors must traverse the outer membrane to be effective. To determine whether low permeability caused the poor in vivo activity of CDD-97, an accumulation assay (Richter, et al., 2017, Nature 545:299-304) was performed to quantify the amount of CDD-97 present in E. coli cells after incubation. In the assay, tetracycline was used as a positive control while fusidic acid and clindamycin were used as negative controls (Richter, et al., 2017, Nature 545:299-304). Controls and CDD-97 were separately incubated with wildtype E. coli (MG1655) cells and then these cells were centrifuged through silicone oil to separate free, unaccumulated compound from the cell pellet. Cell lysates were collected by freeze-thawing and analyzed by mass spectrometry to quantify the amount of accumulated compound. Compared to tetracycline, CDD-97 was present in cells at 20-fold lower levels (FIG. 6B). […] The finding that CDD-97 accumulates inefficiently across the outer membrane was also examined by adding sub-lethal concentrations of colistin to the ampicillin/CDD-97 MIC assays. Colistin is known to disrupt the outer membrane and enhance permeability in E. coli. If the outer membrane is a barrier for CDD-97, it was predicted that the addition of sub-lethal concentrations of colistin would enhance the activity of CDD-97 against E. coli. […]
(In general: Broth dilution looks for growth in wells or tubes with falling amounts of substance.)

Values joined by “and” are separate entries in the source; they are usually repeats but may differ in a detail not shown here. Equal entries are not always repeated. “Also recorded” adds a separate entry of the source. Where two headings read alike, the source gives them in different places. A value given as a limit tells only on which side of the number the result lay.

The term Ki denotes the dissociation constant of the complex between target and ligand, obtained from inhibition or displacement. A lower Ki goes with a stronger hold on the target.

OXA-48, sequence (Q6XEC0 23-265, looked up): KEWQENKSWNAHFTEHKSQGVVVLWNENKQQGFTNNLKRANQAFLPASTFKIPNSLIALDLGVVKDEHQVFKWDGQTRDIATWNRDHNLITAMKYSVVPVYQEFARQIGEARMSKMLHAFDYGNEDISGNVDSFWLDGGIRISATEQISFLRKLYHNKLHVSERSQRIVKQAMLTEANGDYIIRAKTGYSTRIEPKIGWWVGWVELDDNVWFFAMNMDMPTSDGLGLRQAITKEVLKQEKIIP

`CCOc1ccccc1OCCOc1ncnc(N2CCC(C(=O)O)CC2)n1`: the Ki on OXA-48 turned out to be 18.8 ± 2.5 µM.
For `CCOc1ccccc1N1CCN(c2ncnc(N3CCC(N)(C(=O)O)CC3)n2)CC1`, the Ki on OXA-48 came to 29 ± 4 µM.
As to “1-(4-(2-(2-ethoxyphenoxy)ethoxy)-1,3,5-triazin-2-yl)piperidine-4-carboxylic acid [CDD-900]”, the inhibitory constant (Ki) at OXA-48 stood at 38.1 µM.
Turning to `CC1(C)S[C@@H]2[C@H](NC(=O)[C@H](N)c3ccccc3)C(=O)N2[C@H]1C(=O)O` [AMP, ampicillin, reference compound], the MIC was 512 µg/mL in the test with E. coli MG1655OXA-48 (MG1655OXA48, read-out: AMP MIC, ampicillin alone, no inhibitor); 1020 µg/mL in the test with E. coli MG1655OXA-48 (MG1655OXA48, read-out: AMP MICs, (−) CDD-97, colistin 0 μg/mL); 1020 µg/mL in the test on E. coli MG1655OXA-48 (MG1655OXA48, read-out: AMP MICs, (−) CDD-97, colistin 0.0625 μg/mL); 1020 µg/mL with E. coli MG1655OXA-48 (MG1655OXA48, read-out: AMP MICs, (−) CDD-97, colistin 0.125 μg/mL); 512 µg/mL in the test on E. coli MG1655OXA-48 (MG1655OXA48, read-out: AMP MICs, (−) CDD-97, colistin 0.25 μg/mL); 256 µg/mL in the test with E. coli MG1655OXA-48 (MG1655OXA48, read-out: AMP MICs, (−) CDD-97, colistin 0.5 μg/mL). Further, the MIC with E. coli MG1655OXA-48 (MG1655OXA48, read-out: AMP MICs, (−) CDD-97, colistin 1 μg/mL) was found to be 256 µg/mL.
Regarding `CCOc1ccccc1N1CCN(c2ncnc(N3CCC(C(=O)OC)CC3)n2)CC1` [CDD-95, methyl 1-(4-(4-(2-ethoxyphenyl)piperazin-1-yl)-1,3,5-triazin-2-yl)piperidine-4-carboxylate], on OXA-48, the “potency/activity against OXA-48 in words” value is listed as “low of activity; also recorded: significant loss of inhibitory activity” and the Ki is no less than 50 µM.
For `CCOc1ccccc1N1CCN(c2ncnc(N3CC(F)(C(=O)O)C3)n2)CC1` [CDD-96, 1-(4-(4-(2-ethoxyphenyl)piperazin-1-yl)-1,3,5-triazin-2-yl)-3-fluoroazetidine-3-carboxylic acid], the “potency/activity against OXA-48 in words” value at OXA-48 is “potency was low”.
In the case of `CCOc1ccccc1N1CCN(c2ncnc(N3CC(F)(C(=O)NC)C3)n2)CC1` [CDD-147, 1-(4-(4-(2-ethoxyphenyl)piperazin-1-yl)-1,3,5-triazin-2-yl)-3-fluoro-N-methylazetidine-3-carboxamide], on OXA-48, the “potency/activity against OXA-48 in words” value is listed as “potency was low” and the Ki is greater than 50 µM.
On OXA-48, `CCOc1ccccc1N1CCN(c2nc(N3CCC(C(=O)O)CC3)nc(N3CC(F)(C(=O)NC)C3)n2)CC1` [CDD-163, 1-(4-(4-(2-ethoxyphenyl)piperazin-1 yl)-6-(3-fluoro-3-(methylcarbamoyl)azetidin-1-yl)-1,3,5-triazin-2-yl)piperidine-4-carboxylic acid] showed a Ki greater than 50 µM.
Consider `O=C(O)C1CCN(c2ncnc(N3CCN(c4ccccc4OCC(F)(F)F)CC3)n2)CC1` [CDD-178, 1-(4-(4-(2-(2,2,2-trifluoroethoxy)phenyl)piperazin-1-yl)-1,3,5-triazin-2-yl)piperidine-4-carboxylic acid], for which the Ki on OXA-48 is 1 µM and 0.83 µM.
For the molecule `O=C(O)C1CCN(c2ncnc(N3CCN(c4ccccc4C(F)(F)F)CC3)n2)CC1` [CDD-180, 1-(4-(4-(2-(trifluoromethyl)phenyl)piperazin-1-yl)-1,3,5-triazin-2-yl)piperidine-4-carboxylic acid], on OXA-48, the Ki was 1.7 µM.
At OXA-48, `CS(=O)(=O)c1ccccc1N1CCN(c2ncnc(N3CCC(C(=O)O)CC3)n2)CC1` [CDD-181, 1-(4-(4-(2-(methylsulfonyl)phenyl)piperazin-1-yl)-1,3,5-triazin-2-yl)piperidine-4-carboxylic acid] registered a Ki of 3.23 ± 0.39 µM.
Still for that read-out and setting: the value for `CN1CCN(c2ncnc(N3CCC(C(=O)O)CC3)n2)CC1` [CDD-187, 1-(4-(4-methylpiperazin-1-yl)-1,3,5-triazin-2-yl)piperidine-4-carboxylic acid] was greater than 50 µM; that for `CCOc1ccccc1CCNc1ncnc(N2CCC(C(=O)O)CC2)n1` [CDD-375, 1-(4-((2-ethoxyphenethyl)amino)-1,3,5-triazin-2-yl)piperidine-4-carboxylic acid] was 7.51 ± 0.23 µM.
Take `C[C@@H](O)[C@H]1C(=O)N2C(C(=O)O)=C(SCCN=CN)C[C@H]12` [IMP, imipenem, reference compound]: the MIC in the test with E. coli MG1655OXA-48 (MG1655OXA48, read-out: IMP MIC, imipenem alone, no inhibitor) turned out to be 0.625 µg/mL.
In the case of `NC(=O)[C@@H]1CC[C@@H]2CN1C(=O)N2OS(=O)(=O)O` [avibactam, reference compound], the “synergy with β-lactam antibiotics (effect on AMP/IMP MIC) in words” value in the test on E. coli MG1655OXA-48 (E. coli expressing OXA-48, CDD-97 up to 256 μg/mL, avibactam up to 4 μg/mL) is “dose-dependent decrease in both the AMP and IMP MICs”. The MIC in the test on E. coli MG1655OXA-48 (MG1655OXA48, read-out: AMP MIC, with 0.125 μg/mL avibactam) was 256 µg/mL; in the test on E. coli MG1655OXA-48 (MG1655OXA48, read-out: AMP MIC, with 1 μg/mL avibactam), 32 µg/mL; in the test with E. coli MG1655OXA-48 (MG1655OXA48, read-out: AMP MIC, with 2 μg/mL avibactam), 16 µg/mL; in the test on E. coli MG1655OXA-48 (MG1655OXA48, read-out: AMP MIC, with 4 μg/mL avibactam), 4 µg/mL; in the test with E. coli MG1655OXA-48 (MG1655OXA48, read-out: AMP MIC, with .25 μg/mL avibactam) it was 128 µg/mL; with E. coli MG1655OXA-48 (MG1655OXA48, read-out: AMP MIC, with .5 μg/mL avibactam) it was 64 µg/mL. Also, the MIC is 0.312 µg/mL in the test with E. coli MG1655OXA-48 (MG1655OXA48, read-out: IMP MIC, with 0.125 μg/mL avibactam); 0.156 µg/mL in the test with E. coli MG1655OXA-48 (MG1655OXA48, read-out: IMP MIC, with 1 μg/mL avibactam); 0.156 µg/mL with E. coli MG1655OXA-48 (MG1655OXA48, read-out: IMP MIC, with 2 μg/mL avibactam); 0.0781 µg/mL in the test with E. coli MG1655OXA-48 (MG1655OXA48, read-out: IMP MIC, with 4 μg/mL avibactam); 0.312 µg/mL in the test with E. coli MG1655OXA-48 (MG1655OXA48, read-out: IMP MIC, with .25 μg/mL avibactam); 0.156 µg/mL in the test with E. coli MG1655OXA-48 (MG1655OXA48, read-out: IMP MIC, with .5 μg/mL avibactam).
As for colistin [reference compound], the “colistin concentration at which bacteria were completely killed off regardless of the presence of AMP” value in the test with E. coli MG1655OXA-48 (colistin, with or without AMP) is recorded as “At ≥2 μg/mL colistin, bacteria were completely”.

For the origin of these results see patent US12286418B2, “Compounds and methods for treating or preventing bacterial infections” (priority 2019, dated 2025).
